The subject of series [1] is 10% human plasma supplemented with rhNEP (ACE and NEP activity). The series is described as follows: Metabolism of a bradykinin 1-9 spike in human plasma (LC-MS/MS). It is filed as biochemical. The following applies: for initial bradykinin 1-9 spike remaining/recovered following the incubation period: 50 ng/ml BK 1-9 spike, 10% human plasma + rhNEP 200 pg/ml, 37° C.
Method: All samples were spiked with bradykinin 1-9 (BK1-9) at a concentration of 50 ng/ml followed by an incubation period at 37° C. Recombinant human neutral endopeptidase (rhNEP) was added to all samples at a concentration of 200 pg/ml.
The concentrations of BK 1-9 are relative to the control that was plasma spiked with BK 1-9 following the incubation period (100% spike control).
Effects on Bradykinin Peptides. The metabolism of a spike of bradykinin 1-9 (50 ng/ml) in 10% human plasma supplemented with 200 pg/ml rhNEP (R&D) in vitro, followed by LC-MS/MS-based quantification of the bradykinin metabolites bradykinin 1-9, 1-8, 1-7, 1-5, and 2-9 was examined. Briefly, samples where stabilized and spiked with 200 pg/ml of stable-isotope-labelled internal standards for bradykinin 1-9, 1-8, 1-7, 1-5, and 2-9. Following C18-based solid-phase-extraction, samples were subjected to LC-MS/MS analysis using a reversed-phase analytical column (Acquity UPLC® C18, Waters) operating in line with a XEVO TQ-S triple quadrupole mass spectrometer (Waters) in MRM mode.
In series [2] the test system is hypertensive animal (the high-renin mouse model). The following applies: in vivo; cited from earlier work.
For another series, the target named is ACE C-domain (Homo sapiens, UniProt P12821). Conditions: cited from earlier work.
The conditions of series [3]: cited from earlier work; for angioedema frequency: 5,770 patients with heart failure.
The conditions of series [4]: cited from earlier work.
For series [5] the following is noted: patients with hypertension, cited from earlier work.
For series [6] the following is noted: 573 patients with heart failure; cited from earlier work.
In the next series the test system is aminopeptidase P. The following applies: cited from earlier work.
The subject of series [7] is human plasma supplemented with recombinant human NEP (ACE and NEP activity). The series is described as follows: RAS equilibrium analysis of angiotensin peptides in human plasma ex vivo (LC-MS/MS). The following applies: human plasma + rhNEP 200 pg/ml.
Method: Recombinant human neutral endopeptidase (rhNEP) was added to all samples at a concentration of 200 pg/ml.
Equilibrium angiotensin peptide levels were measured in plasma samples after incubating Li-Heparin samples supplemented with recombinant human NEP (rhNEP) (R&D, 200 pg/ml) at controlled pH (7.4) for a period of 30 min at 37° C. in the presence and absence of indicated compounds and enzymes. Following equilibration, samples were stabilized and spiked with stable-isotope-labelled internal standards for each angiotensin metabolite, Ang I (Ang 1-10), Ang II (Ang 1-8), Ang 1-7, Ang 1-5, Ang 2-8, Ang 3-8, Ang 2-10, Ang 2-7, Ang 1-9, and Ang 3-7, at a concentration of 200 pg/ml. Following C18-based solid-phase-extraction, samples were subjected to LC-MS/MS analysis using a reversed-phase analytical column (Acquity UPLC® C18, Waters) operating in line with a XEVO TQ-S triple quadrupole mass spectrometer (Waters) in MRM mode.

We go through five compounds from patent publication US11129805B2, “Dual ACE C-domain/NEP inhibitors” (ANGIODESIGN (UK) LIMITED, priority 2016, dated 2021).

Read-outs that look alike come from different tables or passages of the source.

ACE C-domain, sequence (P12821 643-1222 limits assumed): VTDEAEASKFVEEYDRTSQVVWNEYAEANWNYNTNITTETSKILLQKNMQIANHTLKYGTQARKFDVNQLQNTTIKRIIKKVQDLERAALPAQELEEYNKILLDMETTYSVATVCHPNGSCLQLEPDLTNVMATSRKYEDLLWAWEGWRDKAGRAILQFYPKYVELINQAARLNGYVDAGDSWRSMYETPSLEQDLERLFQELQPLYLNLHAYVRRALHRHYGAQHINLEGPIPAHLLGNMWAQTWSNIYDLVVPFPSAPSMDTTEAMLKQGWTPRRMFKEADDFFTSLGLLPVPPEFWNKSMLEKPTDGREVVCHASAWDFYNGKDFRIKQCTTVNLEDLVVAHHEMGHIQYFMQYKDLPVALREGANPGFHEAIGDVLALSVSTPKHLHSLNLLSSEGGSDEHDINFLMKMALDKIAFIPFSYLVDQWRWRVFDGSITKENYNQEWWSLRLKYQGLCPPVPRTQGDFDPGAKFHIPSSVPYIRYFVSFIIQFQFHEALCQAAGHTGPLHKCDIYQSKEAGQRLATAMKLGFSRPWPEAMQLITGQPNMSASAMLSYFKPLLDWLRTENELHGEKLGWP

As to `NCCCC[C@H](N[C@@H](CCc1ccccc1)C(=O)O)C(=O)N1CCC[C@H]1C(=O)O` [lisinopril], the “initial bradykinin 1-9 spike remaining/recovered following the incubation period” value in series [1] was 57-70%. The “plasma BK levels” value in [2] is “substantial increases in plasma BK levels”.
On to `O=C(N[C@@H](Cc1ccccc1)P(=O)(O)C1CCCC1C(=O)N[C@@H](Cc1c[nH]c2ccccc12)C(=O)O)OCc1ccccc1` (some centres unmarked) [RXP A380], for which the C-domain selectivity on ACE C-domain was ~3,000 fold.
In the case of `CCOC(=O)[C@H](CCc1ccccc1)N[C@@H](C)C(=O)N1CCC[C@H]1C(=O)O` [enalapril], in series [3], the angioedema frequency is 0.5%.
As for `O=C(N[C@H]1CCS[C@H]2CCC[C@@H](C(=O)O)N2C1=O)[C@@H](S)Cc1ccccc1` [omapatrilat], the “initial bradykinin 1-9 spike remaining/recovered following the incubation period” value in series [1] is reported as 74-85%. Besides, in series [1] (versus solvent control plasma), the metabolism of bradykinin result was “decreased metabolism of bradykinin”. In addition, the incidence of angioedema in series [4] (25,302 hypertensive subjects) was 2.17%; in [4] (African American patients), 5.53%. The blood pressure reduction entry in [4] (comparison with enalapril) is recorded as “superior to enalapril in reducing blood pressure”. Further, the “reduction in arterial pressure” value in series [5] (versus lisinopril) is given as “greater reductions in arterial pressure”. In [5], the “excretion of ANP” value was “increased the excretion of ANP”. Moreover, the benefit versus lisinopril result in series [6] is listed as “trend toward greater benefit”. Also, the “inhibition of aminopeptidase P” value with aminopeptidase P is “inhibits”. Besides, the angioedema frequency in [3] is 0.8%. Besides, the “primary endpoint (all-cause mortality or hospitalization for heart failure)” value in [3] (comparison with enalapril) is “failed to show superiority”. Moreover, in series [7] (pH 7.4, 30 min at 37° C.), the “inhibition of equilibrium Ang 1-8 levels (Ang II)” value worked out at 93.1%. The “levels of Ang 1-7” value in [7] (sentence follows the rhACE2 discussion) was “undetectable”.
For `NCCCC[C@H](N[C@@H](CCc1ccccc1)C(=O)O)C(=O)N[C@@H](Cc1c[nH]c2ccccc12)C(=O)O` [Lis-Trp], in [2], the “Ang II formation” value is recorded as “suppression of Ang Il formation”, the blood pressure entry is listed as “reduction in blood pressure equivalent to that achieved with the conventional ACE inhibitor lisinopril” and the “plasma BK levels” value is “leaving BK levels unchanged”.
